Assay [1] deals with c-Kit kinase (Homo sapiens, UniProt P10721). In words: c-Kit kinase biochemical activity assay (AlphaScreen, biotin-(E4Y)10 phosphorylation). Conditions: 100 μM ATP; read-out: Biochemical Inhibition IC50 Kit. The essentials:
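Phosphorylation of 30 nM biotin-(E4Y)10 by c-Kit (0.75 ng per reaction) with 100 µM ATP in HEPES pH 7.5 buffer with Mg2+/Mn2+, 5% DMSO, 1 h at room temperature; 8-point 1:2 compound dilutions. AlphaScreen detection with streptavidin donor and PY20 acceptor beads after EDTA stop. IC50 from signal versus concentration.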
On the technique in general: In Alpha technology, singlet oxygen from a donor bead excites a nearby acceptor bead.

Assay [2] addresses T1, BCR-FMS BaF3 cells (Homo sapiens, UniProt P07333).
T1 construct: fused on or other part: P11274 (Breakpoint cluster region protein)
T1 sequence (P07333 582-910): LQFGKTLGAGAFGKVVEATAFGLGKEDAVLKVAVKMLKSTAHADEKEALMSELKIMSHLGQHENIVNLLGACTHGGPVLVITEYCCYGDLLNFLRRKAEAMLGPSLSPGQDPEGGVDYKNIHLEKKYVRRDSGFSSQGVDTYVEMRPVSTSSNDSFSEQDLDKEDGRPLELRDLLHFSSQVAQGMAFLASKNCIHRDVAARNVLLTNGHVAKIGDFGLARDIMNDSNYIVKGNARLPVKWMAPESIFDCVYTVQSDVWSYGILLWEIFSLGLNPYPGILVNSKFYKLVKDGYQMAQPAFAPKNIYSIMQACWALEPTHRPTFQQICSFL
As to the kind of experiment: BaF3 BCR-FMS cell proliferation assay (ATPlite). Conditions: read-out: Inhibition of Cell Proliferation IC50, BCR/BaF3 Fms. The format is cell-based. A digest of the protocol: (§1)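 BaF3 cells expressing BCR fusions were plated at 10,000 cells/well without IL-3, and MV-4-11 cells at 25,000 cells/well. Cells were treated the next day with an 8-point 1:3 dilution series (top 10 μM final) and incubated 3 days at 37 °C. ATPlite luminescence gave cell number, from which IC50 was fitted.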
(In ATP-based viability assays light output follows the ATP content of the culture.)

The target of assay [3] is T2, BCR-NTRK1 BaF3 cells (Homo sapiens, UniProt P04629).
T2 construct: fused on or other part: P11274 (Breakpoint cluster region protein)
T2 sequence (P04629 510-781): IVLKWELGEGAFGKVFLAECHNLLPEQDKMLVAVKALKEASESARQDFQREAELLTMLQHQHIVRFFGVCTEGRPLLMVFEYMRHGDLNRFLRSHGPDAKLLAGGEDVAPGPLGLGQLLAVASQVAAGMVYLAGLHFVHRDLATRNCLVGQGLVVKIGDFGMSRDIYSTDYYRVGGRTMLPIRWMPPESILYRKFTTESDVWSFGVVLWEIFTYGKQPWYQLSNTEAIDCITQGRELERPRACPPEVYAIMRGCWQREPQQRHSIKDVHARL
As to the kind of experiment: BaF3 BCR-NTRK1 cell proliferation assay (ATPlite). Type of assay: cell-based. To be noted: read-out: Inhibition of Cell Proliferation IC50, BCR/BaF3 TrkA. A digest of the protocol: as §1

Sequence of c-Kit kinase (P10721 26-976): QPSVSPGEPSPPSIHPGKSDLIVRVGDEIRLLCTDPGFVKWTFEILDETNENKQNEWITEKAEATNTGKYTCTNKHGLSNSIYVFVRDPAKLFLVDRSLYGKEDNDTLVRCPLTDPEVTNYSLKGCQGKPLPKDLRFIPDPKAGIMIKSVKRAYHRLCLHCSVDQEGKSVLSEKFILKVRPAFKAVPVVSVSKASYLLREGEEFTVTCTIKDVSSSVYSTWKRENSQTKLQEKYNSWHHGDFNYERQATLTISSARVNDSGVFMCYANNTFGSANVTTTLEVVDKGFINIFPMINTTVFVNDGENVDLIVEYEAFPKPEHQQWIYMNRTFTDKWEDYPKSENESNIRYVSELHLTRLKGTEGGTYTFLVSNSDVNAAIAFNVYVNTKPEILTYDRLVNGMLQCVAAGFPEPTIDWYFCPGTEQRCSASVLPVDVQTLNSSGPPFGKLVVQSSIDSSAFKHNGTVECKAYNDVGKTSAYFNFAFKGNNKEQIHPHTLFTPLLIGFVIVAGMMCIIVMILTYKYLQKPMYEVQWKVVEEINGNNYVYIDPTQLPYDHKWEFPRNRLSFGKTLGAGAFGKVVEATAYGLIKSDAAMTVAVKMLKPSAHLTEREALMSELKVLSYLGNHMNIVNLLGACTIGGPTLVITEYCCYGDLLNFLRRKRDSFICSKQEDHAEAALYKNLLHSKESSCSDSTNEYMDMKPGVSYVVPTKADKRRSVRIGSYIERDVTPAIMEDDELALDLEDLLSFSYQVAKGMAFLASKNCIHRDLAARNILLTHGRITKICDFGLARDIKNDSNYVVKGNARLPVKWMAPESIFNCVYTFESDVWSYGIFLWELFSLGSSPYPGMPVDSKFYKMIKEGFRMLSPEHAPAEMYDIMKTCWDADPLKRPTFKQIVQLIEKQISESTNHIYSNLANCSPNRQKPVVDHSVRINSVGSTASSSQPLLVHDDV

For `Clc1cnc2[nH]cc(Cc3cnc(NC4CCC4)nc3)c2c1` [Compound P-3007, [5-(5-Chloro-1H-pyrrolo[2,3-b]pyridin-3-ylmethyl)-pyrimidin-2-yl]-cyclobutyl-amine], the IC50 is more than 1 µM in assay [1], less than 1 µM in assay [2] and more than 10 µM in assay [3].

In the case of `Cc1cnc2[nH]cc(Cc3ccc(NC4CCCCC4)nc3F)c2c1` [Compound P-3008, cyclohexyl-[6-fluoro-5-(5-methyl-1H-pyrrolo[2,3-b]pyridin-3-ylmethyl)-pyridin-2-yl]-amine], the IC50 is less than 1 µM in assay [1] and less than 0.1 µM in assay [2].

For `O=C(c1ccc(Nc2ccc(C3CC3)nc2)nc1F)c1c[nH]c2ncnc(C3CC3)c12` [Compound P-4040, [6-(6-Cyclopropyl-pyridin-3-ylamino)-2-fluoro-pyridin-3-yl]-(4-cyclopropyl-7H-pyrrolo[2,3-d]pyrimidin-5-yl)-methanone], the IC50 in assay [1] is less than 0.1 µM; in assay [2], less than 0.1 µM; in assay [3], less than 0.01 µM.

For `Fc1nc(Nc2ccc(C3CC3)nc2)ccc1Cc1c[nH]c2ncnc(C3CC3)c12` [Compound P-4041, (6-Cyclopropyl-pyridin-3-yl)-[5-(4-cyclopropyl-7H-pyrrolo[2,3-d]pyrimidin-5-ylmethyl)-6-fluoro-pyridin-2-yl]-amine], the IC50 in assay [1] is less than 0.1 µM; in assay [2], less than 0.01 µM; in assay [3], less than 0.01 µM.

Take `Nc1ncnc2[nH]cc(C(=O)c3ccc(NC4CCC(F)(F)CC4)nc3Cl)c12` [Compound P-4046, (4-amino-7H-pyrrolo[2,3-d]pyrimidin-5-yl)-[2-chloro-6-[(4,4-difluorocyclohexyl)amino]-3-pyridyl]methanone]: the values for the IC50 in assay [1], in assay [2] and in assay [3] were less than 1 µM, less than 0.1 µM and less than 1 µM, respectively.

For the compound `CC(C)=CNc1ncnc2[nH]cc(C(=O)c3ccc(NC4CCC(F)(F)CC4)nc3Cl)c12` [Compound P-4047, [2-chloro-6-[(4,4-difluorocyclohexyl)amino]-3-pyridyl]-[4-(2-methylprop-1-enylamino)-7H-pyrrolo[2,3-d]pyrimidin-5-yl]methanone], the IC50 in assay [1], in assay [2] and in assay [3] was more than 1 µM each time.

Consider `Nc1ncnc2[nH]cc(C(=O)c3ccc(Nc4ccc(C5CC5)nc4)nc3F)c12` [Compound P-4048, (4-amino-7H-pyrrolo[2,3-d]pyrimidin-5-yl)-[6-[(6-cyclopropyl-3-pyridyl)amino]-2-fluoro-3-pyridyl]methanone], for which the IC50 is less than 0.01 µM in assay [1], less than 0.01 µM in assay [2] and less than 1 µM in assay [3].

For `CC(C)(O)CNc1ncnc2[nH]cc(C(=O)c3ccc(Nc4ccc(C5CC5)nc4)nc3F)c12` [Compound P-4049, [6-[(6-cyclopropyl-3-pyridyl)amino]-2-fluoro-3-pyridyl]-[4-[(2-hydroxy-2-methyl-propyl)amino]-7H-pyrrolo[2,3-d]pyrimidin-5-yl]methanone], the IC50 in assay [1], in assay [2] and in assay [3] was less than 1 µM throughout.

Turning to `CCNc1ncnc2[nH]cc(C(=O)c3ccc(NC4CCC(F)(F)CC4)nc3Cl)c12` [Compound P-4050, [2-chloro-6-[(4,4-difluorocyclohexyl)amino]-3-pyridyl]-[4-(ethylamino)-7H-pyrrolo[2,3-d]pyrimidin-5-yl]methanone], the IC50 in assay [1], in assay [2] and in assay [3] was less than 1 µM in each case.

For the compound `CCNc1ncnc2[nH]cc(C(=O)c3cnc(NC4CCC(F)(F)CC4)c(F)c3)c12` [Compound P-4051, [6-[(4,4-difluorocyclohexyl)amino]-5-fluoro-3-pyridyl]-[4-(ethylamino)-7H-pyrrolo[2,3-d]pyrimidin-5-yl]methanone], the IC50 in assay [1], in assay [2] and in assay [3] was less than 1 µM each time.

On to `O=C(c1cnc(NC2CCC(F)(F)CC2)c(F)c1)c1c[nH]c2ncnc(NCC(F)(F)F)c12` [Compound P-4052, [6-[(4,4-difluorocyclohexyl)amino]-5-fluoro-3-pyridyl]-[4-(2,2,2-trifluoroethylamino)-7H-pyrrolo[2,3-d]pyrimidin-5-yl]methanone], for which the IC50 is more than 1 µM in assay [1], less than 1 µM in assay [2] and less than 1 µM in assay [3].

On to `O=C(c1cnc(NC2CCC(F)(F)CC2)c(F)c1)c1c[nH]c2ncnc(NC3CC3)c12` [Compound P-4053, [4-(cyclopropylamino)-7H-pyrrolo[2,3-d]pyrimidin-5-yl]-[6-[(4,4-difluorocyclohexyl)amino]-5-fluoro-3-pyridyl]methanone], for which the IC50 in assay [1] is less than 1 µM; in assay [2], less than 1 µM; in assay [3], less than 0.01 µM.

As to `CNc1ncnc2[nH]cc(C(=O)c3cnc(NC4CCC(F)(F)CC4)c(F)c3)c12` [Compound P-4054, [6-[(4,4-difluorocyclohexyl)amino]-5-fluoro-3-pyridyl]-[4-(methylamino)-7H-pyrrolo[2,3-d]pyrimidin-5-yl]methanone], the IC50 in assay [1] is more than 1 µM; in assay [2], less than 1 µM; in assay [3], less than 1 µM.

The record behind these values is US8901118B2, “Compounds and methods for kinase modulation, and indications therefor” (Plexxikon Inc., priority 2010, dated 2014).
